Test system: T1, purified human Hsp90
T1 construct: purified human Hsp90 (Stressgen, SPP-770)
Assay: Hsp90 binding assay: displacement of BODIPY-labeled geldanamycin measured by fluorescence polarization
Conditions: 5 μM compound; BODIPY-GM 10 nM, Hsp90 30 nM, overnight at room temperature
Experimental: Binding of the Example Compounds to purified Hsp90 was assayed by measuring the displacement of BODIPY-labeled geldanamycin (BODIPY-GM) from purified human Hsp90, using a fluorescence polarization assay adapted from Kim et al. (J. Biomolec. Screening, 9(5):375-381 (2004)). Compound dilutions (in 100% DMSO) were added to black-bottom 96-well plates (Greiner Bio-One, Monroe, N.C.) in 2% DMSO final, and equal volumes of BODIPY-GM (10 nM final) and purified human Hsp90 (Stressgen, SPP-770; 30 nM final) (Assay Designs, Ann Arbor, Mich.) in assay buffer (20 mM HEPES-KOH pH 7.3, 50 mM KCl, 5 mM MgCl2, 20 mM Na2MoO4, 0.01% NP-40, 0.1 mg/mL bovine gamma globulin [P2045; Invitrogen, Carlsbad, Calif.], 2 mM DTT) were added sequentially to yield a final volume of 50 microliters. Plates were incubated overnight at room temperature. Parallel and perpendicular fluorescence measurements were read (Analyst AD plate reader; LJL BioSystems, Middletown, Conn.) with excitation/emission wavelengths of 485/530 nm. Background fluorescence (buffer only) was subtracted, and fluorescence polarization (FP) values, expressed in mP units, were calculated from parallel and perpendicular fluorescence readings as follows:
FP=(parallel−perpendicular)/(parallel+perpendicular)*1000.
Percent inhibition was calculated by normalizing the FP values to those obtained in parallel reactions containing DMSO and subtracting these normalized values from 100%. Intrinsic compound fluorescence was independently monitored, and FP data points confounded by compound fluorescence were excluded from the analysis.

| SMILES | GM displacement from purified Hsp90 measured by FP Inhibition by 5 μM compd. (%) |
| --- | --- |
| N#Cc1cc2c(cc1Sc1nc3c(N)ncn(CCC4CCN(C=O)CC4)c-3n1)CCC2=O [compound 2, 6-({6-amino-3-[2-(1-formylpiperidin-4-yl)ethyl]-3H-purin-8-yl}thio)-3-oxoindane-5-carbonitrile] | 24.0 |
| CS(=O)(=O)N1CCCC(CCn2cnc(N)c3nc(Sc4cc5c(cc4Br)OCCO5)nc2-3)C1 (stereo not shown) [compound 13, 8-[(7-Bromo-2,3-dihydro-1,4-benzodioxin-6-yl)thio]-3-{2-[1-(methylsulfonyl)piperidin-3-yl]ethyl}-3H-purin-6-amine] | 38.0 |
| CCCN1CCCCC1CCn1cnc(N)c2nc(Sc3cc4c(cc3Br)OCCO4)nc1-2 (stereo not shown) [compound 16, 8-[(7-Bromo-2,3-dihydro-1,4-benzodioxin-6-yl)thio]-3-[2-(1-propylpiperidin-2-yl)ethyl]-3H-purin-6-amine] | 73.0 |
| CS(=O)(=O)N1CCC(CCn2cnc(N)c3nc(Sc4cc5c(cc4Br)OCCO5)nc2-3)CC1 [compound 17, 8-[(7-Bromo-2,3-dihydro-1,4-benzodioxin-6-yl)thio]-3-{2-[1-(methylsulfonyl)piperidin-4-yl]ethyl}-3H-purin-6-amine] | 33.0 |
| COc1ccc(Br)c(Sc2nc3c(N)ncn(CCC4CCN(C(C)=O)CC4)c-3n2)c1 [compound 19, 3-[2-(1-Acetylpiperidin-4-yl)ethyl]-8-[(2-bromo-5-methoxyphenyl)thio]-3H-purin-6-amine] | 10.0 |
| Cn1nnnc1N1CCC(CCn2cnc(N)c3nc(Sc4cc5c(cc4Br)OCCO5)nc2-3)CC1 [compound 22, 8-[(7-Bromo-2,3-dihydro-1,4-benzodioxin-6-yl)thio]-3-{2-[1-(1-methyl-1H-tetrazol-5-yl)piperidin-4-yl]ethyl}-3H-purin-6-amine] | 46.0 |
| CC(C)C(=O)N1CCC(CCn2cnc(N)c3nc(Sc4cc5c(cc4Br)OCCO5)nc2-3)CC1 [compound 24, 8-[(7-Bromo-2,3-dihydro-1,4-benzodioxin-6-yl)thio]-342-(1-isobutyrylpiperidin-4-ypethyl]-3H-purin-6-amine] | 28.0 |
| CC(C)C(=O)N1CCC(CCn2cnc(N)c3nc(Sc4cc5c(cc4Br)OCO5)nc2-3)CC1 [compound 26, 8-[(6-Bromo-1,3-benzodioxol-5-yl)thio]-3-[2-(1-isobutyrylpiperidin-4-yl)ethyl]-3H-purin-6-amine] | 55.0 |

Same assay, conditions: BODIPY-GM 10 nM, Hsp90 30 nM, overnight at room temperature; read-out: GM displacement from purified Hsp90 measured by FP IC 50

| SMILES | IC50 [nM] |
| --- | --- |
| Nc1ncnc2c1nc(Sc1cc3c(cc1Cl)OCO3)n2CCC1CCN(C(=O)CO)CC1 [Example Compound 205, 2-[4-(2-{6-Amino-8-[(6-chloro-1,3-benzodioxol-5-yl)thio]-9H-purin-9-yl}ethyl)piperidin-1-yl]-2-oxoethanol] | 497 |
| C[C@H](O)C(=O)N1CCCC[C@@H]1CCn1c(Sc2cc3c(cc2Br)OCO3)nc2c(N)ncnc21 [Example Compound 206, (2S)-1-[(2R)-2-(2-{6-Amino-8-[(6-bromo-1,3-benzodioxol-5-yl)thio]-9H-purin-9-yl}ethyl)piperidin-1-yl]-1-oxopropan-2-ol] | > 5000 |
| C[C@H](O)C(=O)N1CCCC[C@H]1CCn1c(Sc2cc3c(cc2Br)OCO3)nc2c(N)ncnc21 [Example Compound 207, (2S)-1-[(2S)-2-(2-{6-Amino-8-[(6-bromo-1,3-benzodioxol-5-yl)thio]-9H-purin-9-yl}ethyl)piperidin-1-yl]-1-oxopropan-2-ol] | > 5000 |
| COc1cc(Br)c(Sc2nc3c(N)ncnc3n2CCC2CCN(C(=O)[C@H](C)O)CC2)cc1OC [Example Compound 208, (2S)-1-[4-(2-{6-Amino-8-[(2-bromo-4,5-dimethoxyphenyl)thio]-9H-purin-9-yl}ethyl)piperidin-1-yl]-1-oxopropan-2-ol] | > 5000 |
| C[C@H](O)C(=O)N1CCC(CCn2c(Sc3cc(O)c(O)cc3Br)nc3c(N)ncnc32)CC1 [Example Compound 209, 4-{[6-Amino-9-(2-{1-[(2S)-2-hydroxypropanoyl]piperidin-4-yl}ethyl)-9H-purin-8-yl]thio}-5-bromobenzene-1,2-diol] | 2100 |
| Nc1ncnc2c1nc(Sc1cc3c(cc1Br)OCO3)n2C1CCNCC1 [Example Compound 211, 8-[(6-Bromo-1,3-benzodioxol-5-yl)thio]-9-piperidin-4-yl-9H-purin-6-amine] | 950 |
| C[C@H](O)C(=O)N1CCC(n2c(Sc3cc4c(cc3Br)OCO4)nc3c(N)ncnc32)CC1 [Example Compound 212, (2S)-1-(4-{6-amino-8-[(6-bromo-1,3-benzodioxol-5-yl)thio]-9H-purin-9-yl}piperidin-1-yl)-1-oxopropan-2-ol] | 350 |
| Nc1ncnc2c1nc(Sc1cc3c(cc1Br)OCO3)n2C1CCN(C=O)CC1 [Example Compound 213, 4-{6-Amino-8-[(6-bromo-1,3-benzodioxol-5-yl)thio]-9H-purin-9-yl}piperidine-1-carbaldehyde] | 580 |
| N#Cc1cc2c(cc1Sc1nc3c(N)ncnc3n1CCC1CCN(C=O)CC1)CCC2=O [compound 1, 6-({6-Amino-9-[2-(1-formylpiperidin-4-yl)ethyl]-9H-purin-8-yl}thio)-3-oxoindane-5-carbonitrile] | 230 |
| COCCOCC(=O)N1CCC(CCn2c(Sc3cc4c(cc3Br)OCCO4)nc3c(N)ncnc32)CC1 [compound 3, 8-[(7-Bromo-2,3-dihydro-1,4-benzodioxin-6-yl)thio]-9-(2-{1-[(2-methoxyethoxy)acetyl]piperidin-4-yl}ethyl)-9H-purin-6-amine] | 80 |
| CO[C@@H](C)C(=O)N1CCC(CCn2c(Sc3cc4c(cc3Br)OCCO4)nc3c(N)ncnc32)CC1 [compound 4, 8-[(7-Bromo-2,3-dihydro-1,4-benzodioxin-6-yl)thio]-9-(2-{1-[(2S)-2-methoxypropanoyl]piperidin-4-yl}ethyl)-9H-purin-6-amine] | 80 |
| COCCC(=O)N1CCC(CCn2c(Sc3cc4c(cc3Br)OCCO4)nc3c(N)ncnc32)CC1 [compound 5, 8-[(7-Bromo-2,3-dihydro-1,4-benzodioxin-6-yl)thio]-9-{2-[1-(3-methoxypropanoyl)piperidin-4-yl]ethyl}-9H-purin-6-amine] | 63 |
| COCC(=O)N1CCC(CCn2c(Sc3cc4c(cc3Br)OCCO4)nc3c(N)ncnc32)CC1 [compound 6, 8-[(7-Bromo-2,3-dihydro-1,4-benzodioxin-6-yl)thio]-9-{2-[1-(methoxyacetyl)piperidin-4-yl]ethyl}-9H-purin-6-amine] | 70 |
| CO[C@H](C)C(=O)N1CCC(CCn2c(Sc3cc4c(cc3Br)OCCO4)nc3c(N)ncnc32)CC1 [compound 7, 8-[(7-Bromo-2,3-dihydro-1,4-benzodioxin-6-yl)thio]-9-(2-{1-[(2R)-2-methoxypropanoyl]piperidin-4-yl}ethyl)-9H-purin-6-amine] | 95 |
| Nc1ncnc2c1nc(Sc1cc3c(cc1Br)OCCO3)n2CCC1CCN(C(=O)C2CC2(F)F)CC1 (stereo not shown) [compound 8, 8-[(7-Bromo-2,3-dihydro-1,4-benzodioxin-6-yl)thio]-9-(2-{1-[(2,2-difluorocyclopropyl)carbonyl]piperidin-4-yl}ethyl)-9H-purin-6-amine] | 90 |
| CS(=O)(=O)N1CCCCC1CCn1c(Sc2cc3c(cc2Br)OCCO3)nc2c(N)ncnc21 (stereo not shown) [compound 10, 8-[(7-Bromo-2,3-dihydro-1,4-benzodioxin-6-yl)thio]-9-{2-[1-(methylsulfonyl)piperidin-2-yl]ethyl}-9H-purin-6-amine] | 160 |
| CS(=O)(=O)N1CCCC(CCn2c(Sc3cc4c(cc3Br)OCCO4)nc3c(N)ncnc32)C1 (stereo not shown) [compound 12, 8-[(7-Bromo-2,3-dihydro-1,4-benzodioxin-6-yl)thio]-9-{2-[1-(methylsulfonyl)piperidin-3-yl]ethyl}-9H-purin-6-amine] | 65 |
| CC(C)C(=O)N1CCC(CCn2c(Sc3cc4c(cc3Br)OCCO4)nc3c(N)ncnc32)CC1 [compound 23, 8-[(7-Bromo-2,3-dihydro-1,4-benzodioxin-6-yl)thio]-9-[2-(1-isobutyrylpiperidin-4-yl)ethyl]-9H-purin-6-amine] | 195 |
| CC(C)C(=O)N1CCC(CCn2c(Sc3cc4c(cc3Br)OCO4)nc3c(N)ncnc32)CC1 [compound 25, 8-[(6-Bromo-1,3-benzodioxol-5-yl)thio]-9-[2-(1-isobutyrylpiperidin-4-yl)ethyl]-9H-purin-6-amine] | 110 |
| CCN(CC)C(=O)CN1CCC(CCn2c(Sc3cc4c(cc3Br)OCCO4)nc3c(N)ncnc32)CC1 [compound 27, 2-[4-(2-{6-Amino-8-[(7-bromo-2,3-dihydro-1,4-benzodioxin-6-yl)thio]-9H-purin-9-yl}ethyl)piperidin-1-yl]-N,N-diethylacetamide] | 110 |

Reference: patent US20100292255A1, “Therapeutic Compounds and Their Use in Treating Diseases and Disorders” (Myriad Pharmaceuticals, Inc., priority 2007, published 2010)
